Measured values as given in PubChem BioAssay AID463142 (The Scripps Research Institute Molecular Screening Center, 2010).

Target: Glutathione S-transferase omega-1 (Homo sapiens) (UniProt P78417)
Experiment: IC50 of human GSTO1 blockade by gel ABPP – biochemical, SE-Rh probe, in-gel fluorescence, powder samples, set 2, late-stage follow-up (AID 463142)
Conditions: recombinant GSTO1, SE-Rh probe labeling

Sequence of Glutathione S-transferase omega-1 (Homo sapiens) (P78417 whole entry, looked up): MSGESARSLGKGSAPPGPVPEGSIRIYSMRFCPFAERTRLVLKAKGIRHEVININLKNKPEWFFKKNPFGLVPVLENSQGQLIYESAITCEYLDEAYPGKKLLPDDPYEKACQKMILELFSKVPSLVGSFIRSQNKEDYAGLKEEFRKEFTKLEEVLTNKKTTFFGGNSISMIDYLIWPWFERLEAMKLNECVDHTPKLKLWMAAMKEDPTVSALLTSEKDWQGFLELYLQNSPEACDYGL

IC50: 40 nM
Compound: O=C(CCl)N(CCCNC(=O)C(F)(F)F)c1ccc(Cl)cc1
